{"source": "patent US20220017870A1", "about": "“METHODS OF IDENTIFYING THERAPEUTIC TARGETS FOR TREATING ANGIOGENESIS” (Advanced Solutions Life Sciences, LLC, priority 2020, published 2022)", "system": "growing MVs (neovessels)", "test": "Effect of DYRK3 inhibition on MV growth in 3D culture", "type": "cell-based, human", "description": "FIG. 5. Effect of DYRK3 inhibition on MV growth. Phase contrast images of MVs after 9 days of culture, with a single 3-hour exposure of DYRK3 inhibitor after initial neovessel sprouting (day 4). […] Scale=100 μm. Arrows point to neovessels.\nFor all assays, MVs isolated from human adipose tissue via a limited collagen digestion are embedded (100,000 MV/ml) in a 3 mg/ml collagen gel. This formulation is compatible with a variety of multi-well plates. Whenever possible, assessments are made daily over the course of 1 week, including image acquisition for HCA.\nDYRK3 and angiogenesis: To further explore DYRK3 in this model, growing MVs are treated with the small molecule GSK626616, a known DYRK3 inhibitor. Cultures with growing neovessels (in RPMI with B27 and 50 ng/ml VEGF) were treated with 10 μM GSK626616 for 3 hours, and then returned to medium without inhibitor for an additional 6 days.", "key": {"[1]": {"details": "10 μM for 3 hours, then medium without inhibitor for additional 6 days, RPMI with B27 and 50 ng/ml VEGF, qualitative, vs untreated controls"}}, "data": [{"molecule": "O=C1NC(=Nc2c(Cl)cccc2Cl)S/C1=C\\c1ccc2nccnc2c1", "note": "[GSK626616]", "values": [{"measurement": "impact on parent MV", "setting": "[1]", "value": "did not impact parent MV"}, {"measurement": "neovessel growth", "setting": "[1]", "value": "stopped neovessel growth"}, {"measurement": "neovessel regression", "setting": "[1]", "value": "may have even caused neovessel regression"}, {"measurement": "neovessels apparent in phase contrast images", "setting": "after 9 days of culture, single 3-hour exposure after initial neovessel sprouting (day 4)", "value": "Fewer neovessels are apparent"}]}]}
